Source: the NIST ThermoML archive (doi:10.1016/j.jct.2016.02.008)
± gives the expanded uncertainty stated by the source.

Legend:
[1] = molar heat capacity at constant pressure; conditions: 298.15 K; 101.33 kPa; Crystal; Small sample (50 mg) DSC
[2] = Molar enthalpy of transition or fusion; conditions: Crystal; DSC
[3] = Crystal; for mass density: 298.15 K, 101.33 kPa, measuring the mass and volume of a pellet; for Normal melting temperature: DTA

Row | SMILES | molar heat capacity at constant pressure [1] [J/K/mol] | Molar enthalpy of transition or fusion [2] [kcal/mol] | mass density [3] [kg/m3] | Normal melting temperature [3] [°C]
1 | O=C(O)c1cc2ccccc2o1 [benzofuran-2-carboxylic acid] | 184.8 ± 3.9 | 6.49 ± 0.155 | 1340 ± 60 | 196.7 ± 0.6
2 | O=C(O)c1cc2ccccc2s1 [benzo[b]thiophene-2-carboxylic acid] | 179 ± 4.6 | 7.5 ± 0.165 | 1490 ± 120 | 244.6 ± 0.6
3 | O=C(O)c1cc2ccccc2[nH]1 [indole-2-carboxylic acid] | 178.4 ± 5.5 | 5.49 ± 0.153 | – | 210.0 ± 0.8
4 | CC(=O)c1cc2ccccc2o1 [2-acetylbenzofuran] | 192.1 ± 5.3 | 5.09 ± 0.12 | – | 66 ± 0.9
